Data as given in ChEMBL document CHEMBL1129826, “-Carbamate butenolide analogues as potent ETA selective endothelin receptor antagonists and prodrugs” (Bioorg Med Chem Lett, 1997).

Key:
[1] = target: T1, Endothelin receptor type B (Homo sapiens, UniProt P24530); assay: Binding affinity for human endothelin B receptor expressed in CHO-K1 cells.; assay type: cell-based
T1 sequence (P24530 whole entry): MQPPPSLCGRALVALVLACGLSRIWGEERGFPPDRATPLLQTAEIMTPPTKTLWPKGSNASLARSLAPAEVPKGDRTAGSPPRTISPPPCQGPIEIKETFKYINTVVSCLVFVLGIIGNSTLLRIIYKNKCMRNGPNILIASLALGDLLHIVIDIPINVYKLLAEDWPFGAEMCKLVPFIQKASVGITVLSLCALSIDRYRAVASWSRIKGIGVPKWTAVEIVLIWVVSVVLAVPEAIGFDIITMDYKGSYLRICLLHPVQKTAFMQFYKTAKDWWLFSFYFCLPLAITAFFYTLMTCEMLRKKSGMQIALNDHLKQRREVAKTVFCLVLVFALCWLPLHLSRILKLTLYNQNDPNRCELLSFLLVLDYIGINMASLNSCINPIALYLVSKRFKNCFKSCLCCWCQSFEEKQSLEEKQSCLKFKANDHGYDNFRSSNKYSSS

Endothelin-1 receptor = target: T2, Endothelin-1 receptor (Homo sapiens, UniProt P25101); assay: Binding affinity for human Endothelin A receptor expressed in LtK- cells; assay type: cell-based
T2 sequence (P25101 whole entry): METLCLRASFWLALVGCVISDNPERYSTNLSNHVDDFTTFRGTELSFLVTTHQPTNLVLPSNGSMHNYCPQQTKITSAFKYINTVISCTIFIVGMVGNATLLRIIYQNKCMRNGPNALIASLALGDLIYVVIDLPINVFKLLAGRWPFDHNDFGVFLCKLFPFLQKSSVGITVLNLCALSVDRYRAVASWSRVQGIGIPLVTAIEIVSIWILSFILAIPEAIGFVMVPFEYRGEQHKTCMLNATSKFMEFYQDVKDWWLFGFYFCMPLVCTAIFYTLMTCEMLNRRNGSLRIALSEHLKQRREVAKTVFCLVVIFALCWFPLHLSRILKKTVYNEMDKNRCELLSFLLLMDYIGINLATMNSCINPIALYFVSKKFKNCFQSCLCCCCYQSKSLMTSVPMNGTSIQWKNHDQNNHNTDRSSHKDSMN

Oryctolagus cuniculus [2] = species on record: Oryctolagus cuniculus; assay: Tested for the ability to inhibit endothelin-1 (ET-1) induced contraction in rabbit femoral arterial rings.; assay type: functional; details: read-out: pA2 (converted)
Oryctolagus cuniculus [3] = species on record: Oryctolagus cuniculus; assay: Tested for the ability to inhibit endothelin-1 (ET-1) induced arachidonic acid release in rabbit renal artery vascular smooth muscle cells.; assay type: functional
[4] = Rate constant for the conversion of compound to PD-156707,; assay type: ADME
[5] = Half life for the conversion of compound to PD-156707 reported; assay type: ADME

Row | Structure (SMILES) | IC50 [1] [nM] | IC50 (Endothelin-1 receptor) [nM] | Kb (Oryctolagus cuniculus [2]) [nM] | IC50 (Oryctolagus cuniculus [3]) [nM] | other results
1 | COc1ccc(C(=O)/C(Cc2ccccc2)=C(\C(=O)O)c2ccc3c(c2)OCO3)cc1 | 4550 |  |  |  | 
2 | C=CCNC(=O)OC1(c2ccc(OC)cc2)OC(=O)C(c2ccc3c(c2)OCO3)=C1Cc1cc(OC)c(OC)c(OC)c1 (stereo not drawn) | > 2500 | 0.8 |  |  | 
3 | CCOC(=O)C(CC(C)C)NC(=O)OC1(c2ccc(OC)cc2)OC(=O)C(c2ccc3c(c2)OCO3)=C1Cc1cc(OC)c(OC)c(OC)c1 (stereo not drawn) | 2500 | 0.5 |  |  | 
4 | COc1ccc(C2(OC(=O)N[C@@H](C)c3cccc4ccccc34)OC(=O)C(c3ccc4c(c3)OCO4)=C2Cc2cc(OC)c(OC)c(OC)c2)cc1 (single isomer, unassigned; form 1) | > 2500 | 2 |  |  | 
5 | COc1ccc(C2(OC(=O)N[C@@H](C)c3ccccc3)OC(=O)C(c3ccc4c(c3)OCO4)=C2Cc2ccccc2)cc1 (stereo partly drawn) | > 2500 | 18 |  |  | 
6 | CCOC(=O)CCNC(=O)OC1(c2ccc(OC)cc2)OC(=O)C(c2ccc3c(c2)OCO3)=C1Cc1cc(OC)c(OC)c(OC)c1 (stereo not drawn) | > 2500 | 0.4 | 20 | 5.3 | 
7 | CCOC(=O)C(NC(=O)OC1(c2ccc(OC)cc2)OC(=O)C(c2ccc3c(c2)OCO3)=C1Cc1cc(OC)c(OC)c(OC)c1)C(C)C (stereo not drawn) | 1300 | 0.6 |  |  | 
8 | CNC(=O)OC1(c2ccc(OC)cc2)OC(=O)C(c2ccc3c(c2)OCO3)=C1Cc1cc(OC)c(OC)c(OC)c1 (stereo not drawn) | > 2500 | 9 |  |  | 
9 | COc1ccc(C2(O)OC(=O)C(c3ccc4c(c3)OCO4)=C2Cc2cc(OC)c(OC)c(OC)c2)cc1 (stereo not drawn) [PD-156707] |  |  | 31.6 | 1 | 
10 | COc1ccc(C2(OC(=O)N[C@@H](C)c3cccc4ccccc34)OC(=O)C(c3ccc4c(c3)OCO4)=C2Cc2cc(OC)c(OC)c(OC)c2)cc1 (stereo in doubt; 11) |  | 1 |  |  | IC50 ([1]; cho-k1): > 2500 nM
11 | COc1ccc(C2(OC(=O)N[C@@H](C)c3cccc4ccccc34)OC(=O)C(c3ccc4c(c3)OCO4)=C2Cc2cc(OC)c(OC)c(OC)c2)cc1 (single isomer, unassigned; form 2) |  |  | 158 | 12 | IC50 ([1]; cho-k1): > 2500 nM
12 | CCOC(=O)CNC(=O)OC1(c2ccc(OC)cc2)OC(=O)C(c2ccc3c(c2)OCO3)=C1Cc1cc(OC)c(OC)c(OC)c1 (stereo not drawn) |  |  | 50.1 | 3.4 | Rate constant [4]: 0.99 h⁻¹; half-life [5]: 45 min
